Test results taken from patent US7863332B2, “Biaromatic compound activators of PPARγ receptors and cosmetic/pharmaceutical compositions comprised thereof” (Galderma Research & Development, priority 2004, dated 2011).

Key:
Assay type in all cases: cell-based
[1] = target: T1, PPARγ (Homo sapiens, UniProt P37231); assay: Cross-curve PPAR transactivation test (PPARγ); settings: HeLN cells, Gal-hPPARγ, luciferase reporter; cross curves against reference agonist, Schild regression; n.a means not active; read-out: PPAR gamma Kd app
T1 sequence (P37231 238-505 limits assumed): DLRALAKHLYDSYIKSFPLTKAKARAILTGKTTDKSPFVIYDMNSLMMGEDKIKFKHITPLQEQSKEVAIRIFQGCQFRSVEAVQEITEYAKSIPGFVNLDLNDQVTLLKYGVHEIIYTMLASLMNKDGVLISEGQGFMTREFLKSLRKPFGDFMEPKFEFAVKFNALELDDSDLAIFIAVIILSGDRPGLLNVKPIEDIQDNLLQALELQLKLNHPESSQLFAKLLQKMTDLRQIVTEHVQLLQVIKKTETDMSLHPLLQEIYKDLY
Method: (§1) The activation of PPAR receptors with an agonist (activator) in HeLN cells leads to the expression of a reporter gene, luciferase, which, in the presence of a substrate, generates light. The modulation of the PPAR receptors is measured by quantifying the luminescence produced after incubating the cells in the presence of a reference agonist. The ligands displace the agonist from its site. The measurement of the activity is performed by quantifying the light produced. This measurement makes it possible to determine the modulatory activity of the compounds according to the invention by determining the constant that is the affinity of the molecule for the PPAR receptor. Since this value can fluctuate depending on the basal activity and the expression of the receptor, it is referred to as Kd apparent (KdApp in nM).
(§2) To determine this constant, “cross curves” of the test product against a reference agonist are produced in a 96-well plate: 10 concentrations of the test product plus a concentration 0 are arranged in a line, and 7 concentrations of the agonist plus a concentration 0 are arranged in a column. This is 88 measurement points for 1 product and 1 receptor. The remaining 8 wells are used for repeatability controls.
(§3) Measurements are also taken for total agonist controls with the same products.
(§4) The HeLN cell lines used are stable transfectants containing the plasmids ERE-βGlob-Luc-SV-Neo (reporter gene) and PPAR (α, δ, γ) Gal-hPPAR. These cells are inoculated into 96-well plates at a rate of 10 000 cells per well in 100 μl of DMEM medium without phenol red and supplemented with 10% of defatted calf serum. The plates are then incubated at 37° C. and 7% CO2 for 16 hours.
(§5) The various dilutions of the test products and of the reference ligand are added at a rate of 5 μl per well. The plates are then incubated for 18 hours at 37° C. and 7% CO2. The culture medium is removed by turning over and 100 μl of a 1:1 PBS/luciferin mixture are added to each well. After 5 minutes, the plates are read by the luminescence detector.

[2] = tested on: sebocytes obtained from rat preputial glands; assay: Rat sebocyte culture test; settings: 120 h, 14C acetate-labelled lipids, 5 days incubation + 24 hours label, read-out: Triglycerides AC50
Source text: Sebocytes in culture obtained from rat preputial gland constitute a pertinent model for evaluating sebaceous function modulatory compounds as described by Rosenfield et al. (Mechanisms of androgen induction of sebocyte differentiation. Rosenfield R. L., Deplewski D., Kentsis A., Ciletti N., Dermatology, 1998; 196(1):43-6). This model has especially been used to characterize PPAR compounds with potential in dermatology (Rat preputial sebocyte differentiation involves peroxisome proliferator-activated receptors. Rosenfield R. L., Kentsis A., Deplewski D., Ciletti N., J. Invest. Dermatol., 1999 February; 112(2):226-32). These sebocytes have functional similarities close to those of human skin sebocytes (response to androgens and to anti-androgens, accumulation of specific sebum lipids, expression of specific markers of the sebaceous gland). The data resulting from this test are considered as pertinent of potential activity on the human sebaceous gland.
Protocol for culturing sebocytes obtained from rat preputial glands
The preputial glands are obtained from 10-week-old male rats. They are extracted under anesthesia with isoflurane, before euthanizing the animals. The glands are then digested enzymatically with trypsin (0.25% trypsin+collagenase H 1.5 mg/ml/gland). The cells are cultured for 24 hours in 24-well plates (37° C., 5% CO2) in DMEM culture medium supplemented with various factors, especially fetal calf serum (10%), glutamine (1%), a cocktail of antibiotics and anti-mycotic agents and insulin (5 μg/ml). The cells are then placed in Cellgro medium supplemented with various factors (Mediatech®) and the test compounds are then added in response doses (duplicate). After incubation for 5 days, 10 μl of radio labeled (^14C) acetate are added to the culture medium (0.2 μCi/μl, Amersham). The cells are incubated for 24 hours and then washed and recovered after digestion with trypsin. The radiolabelled lipids are then extracted using a methanol/dichloromethane mixture (1/2) and placed on a silica TLC plate (Merck®) using a loading robot. The lipids are then separated and quantified after revelation using a Phosphorimager (analysis by image analysis software). For each compound, the AC50 (concentration for which 50% of the effect of the compound is obtained) is determined. The results are expressed as nanomolar concentration for the following specific sebaceous gland lipids: Triglycerides and/or Cholesterol esters.

[3] = target: T2, PPARα (Homo sapiens, UniProt Q07869); assay: Cross-curve PPAR transactivation test (PPARα); settings: HeLN cells, Gal-hPPARα, luciferase reporter; cross curves against reference agonist, Schild regression; n.a means not active; read-out: PPAR alpha Kd app
T2 sequence (Q07869 202-468 limits assumed): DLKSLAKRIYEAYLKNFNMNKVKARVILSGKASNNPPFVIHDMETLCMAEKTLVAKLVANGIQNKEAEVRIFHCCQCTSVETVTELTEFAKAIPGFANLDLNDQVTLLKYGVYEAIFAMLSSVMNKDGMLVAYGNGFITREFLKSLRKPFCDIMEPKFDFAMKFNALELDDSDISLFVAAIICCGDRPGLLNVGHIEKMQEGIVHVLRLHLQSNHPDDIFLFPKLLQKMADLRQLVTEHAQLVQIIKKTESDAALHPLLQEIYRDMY
Method: as §1, §2, §3, §4, §5

[4] = target: T3, PPARδ (Homo sapiens, UniProt Q03181); assay: Cross-curve PPAR transactivation test (PPARδ); settings: HeLN cells, Gal-hPPARδ, luciferase reporter; cross curves against reference agonist, Schild regression; n.a means not active; read-out: PPARs delta Kd app
T3 sequence (Q03181 171-441 limits assumed): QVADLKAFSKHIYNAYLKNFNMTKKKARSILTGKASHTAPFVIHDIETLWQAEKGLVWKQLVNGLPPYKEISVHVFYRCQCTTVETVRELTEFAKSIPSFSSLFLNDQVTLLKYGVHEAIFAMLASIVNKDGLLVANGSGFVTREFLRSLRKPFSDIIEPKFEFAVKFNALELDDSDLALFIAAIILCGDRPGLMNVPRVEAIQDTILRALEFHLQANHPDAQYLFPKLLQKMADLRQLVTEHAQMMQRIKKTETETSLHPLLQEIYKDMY
Method: as §1, §2, §3, §4, §5

Structure (SMILES)	Kd [1]	AC50 [2]	Kd [3]	Kd [4]
CCCCCCCNC(=O)N(C)c1cccc(-c2ccc(CCC(=O)O)cc2OCCC(C)C)c1 [Example 16, 3-[3′-(3-heptyl-1-methylureido)-2-(3-methylbutoxy)biphenyl-4-yl]propanoic acid]	1 nM	0.008 nM	1000 nM	
CCCCCCCNC(=O)N(C)c1cccc(-c2ccc(CCC(=O)O)cc2OCCCC)c1 [Example 26, 3-[2-butoxy-3′-(3-heptyl-1-methylureido)biphenyl-4-yl]propanoic acid]	0.25 nM	0.005 nM	250 nM	1000 nM
CCCCCCCNC(=O)N(C)c1cccc(-c2ccc(CCC(=O)O)cc2OCCCC(F)(F)F)c1 [Example 38, 3-[3′-(3-heptyl-1-methylureido)-2-(4,4,4-trifluorobutoxy)biphenyl-4-yl]propanoic acid]	1 nM	0.006 nM	250 nM	
CCCCCNC(=O)N(C)c1cccc(-c2ccc(CCC(=O)O)cc2OCCCC)c1 [Example 41, 3-[2-butoxy-3′-(1-methyl-3-pentylureido)biphenyl-4-yl]propanoic acid]	0.5 nM	0.008 nM	60 nM	2000 nM
CCCCCCCNC(=O)N(C)c1cccc(-c2ccc(CCC(=O)O)cc2OCc2ccc(F)cc2)c1 [Example 44, 3-[2-(4-fluorobenzyloxy)-3′-(3-heptyl-1-methylureido)biphenyl-4-yl]propanoic acid]	1 nM	0.008 nM	1000 nM	
